# Results: US6737383B1, “Herbicidal oxadiazolidines” (priority 1999, dated 2004)
# Assays:
# [1] = test system: cocklebur; assay: Test C postemergence cocklebur; type: in vivo, Xanthium strumarium; details: 0 to 100 scale, 0 no effect, 100 complete control
# Method in brief: (§1)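 Greenhouse postemergence test: compound applied in solvent/surfactant formulation to established plants; visual scoring 0–100 against untreated controls after roughly two to three weeks (14–21 days).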
# [2] = test system: corn; assay: Test C postemergence corn; type: in vivo, Zea mays; details: 0 to 100 scale, 0 no effect, 100 complete control
# Method in brief: as §1
# [3] = test system: ivyleaf morningglory; assay: Test C postemergence ivyleaf morningglory; type: in vivo, Ipomoea hederacea; details: 0 to 100 scale, 0 no effect, 100 complete control
# Method in brief: as §1
# [4] = test system: hairy beggarticks; assay: Test C postemergence hairy beggarticks; type: in vivo, Bidens pilosa; details: 0 to 100 scale, 0 no effect, 100 complete control
# Method in brief: as §1
# [5] = test system: field bindweed; assay: Test C postemergence field bindweed; type: in vivo, Convolvulus arvensis; details: 0 to 100 scale, 0 no effect, 100 complete control
# Method in brief: as §1
# [6] = test system: sourgrass; assay: Test D sourgrass; type: in vivo, Trichachne insularis; details: Preemergence, 0 to 100 scale
# Text: Seeds, tubers, or plant parts of Alexandergrass (Brachiaria plantaginea), bermuda-grass (Cynodon dactylon), common pursiane (Portulaca oleracea), common ragweed (Ambrosia elatior), common groundsel (Senecio vulgaris), dallisgrass (Paspalum dilatatum), goosegrass (Eleusine indica), guineagrass (Panicum maximum), itchgrass (Rottboellia exaltata), Johnson grass (Sorghum halepense), large crabgrass (Digitaria sanguinalis), pitted morningglory (Ipomoea lacunosa), purple nutsedge (Cyperus rotundus), sandbur (Cenchrus echinatus), sourgrass (Trichachne insularis), Spanishneedles (Bidens bipinnata), surinam grass (Brachiaria decumbens) and tall mallow (Malva sylvestris) were planted into greenhouse pots of flats containing greenhouse planting medium. Plant species were grown in separate pots or individual compartments. Preemergence applications were made within one day of planting the seed or plant part.
# Test chemicals were formulated in a non-phytotoxic solvent mixture which included a surfactant and applied preemergence to the surface of the pot containing seeds in a sandy loam soil. Untreated control pots and treated pots were placed in the greenhouse for growth and visually evaluated for injury 14 to 21 days after herbicide application. Plant response ratings, summarized in Table C, are based on a 0 to 100 scale where 0 is no injury and 100 is complete control. A dash (−) response means no test result.
# [7] = test system: purple nutsedge; assay: Test C postemergence purple nutsedge; type: in vivo, Cyperus rotundus; details: 0 to 100 scale, 0 no effect, 100 complete control
# Method in brief: as §1
# [8] = test system: cotton; assay: Test C postemergence cotton; type: in vivo, Gossypium hirsutum; details: 0 to 100 scale, 0 no effect, 100 complete control
# Method in brief: as §1
# [9] = test system: common ragweed; assay: Test C postemergence common ragweed; type: in vivo, Ambrosia elatior; details: 0 to 100 scale, 0 no effect, 100 complete control
# Method in brief: as §1
# [10] = test system: redroot pigweed; assay: Test C postemergence redroot pigweed; type: in vivo, Amaranthus retroflexus; details: 0 to 100 scale, 0 no effect, 100 complete control
# Method in brief: as §1
# [11] = test system: lambsquarters; assay: Test C postemergence lambsquarters; type: in vivo, Chenopodium album; details: 0 to 100 scale, 0 no effect, 100 complete control
# Method in brief: as §1
# [12] = test system: giant foxtail; assay: Test C postemergence giant foxtail; type: in vivo, Setaria faberii; details: 0 to 100 scale, 0 no effect, 100 complete control
# Method in brief: as §1
# [13] = test system: surinam grass; assay: Test C postemergence surinam grass; type: in vivo, Brachiaria decumbens; details: 0 to 100 scale, 0 no effect, 100 complete control
# Method in brief: as §1
# [14] = test system: large crabgrass; assay: Test C postemergence large crabgrass; type: in vivo, Digitaria sanguinalis; details: 0 to 100 scale, 0 no effect, 100 complete control
# Method in brief: as §1
# [15] = test system: eastern black nightshade; assay: Test C postemergence eastern black nightshade; type: in vivo, Solanum ptycanthum; details: 0 to 100 scale, 0 no effect, 100 complete control
# Method in brief: as §1
# [16] = Rate 64 g/ha, 0 no injury, 100 complete control
# [17] = Rate 32 g/ha, 0 no injury, 100 complete control
# [18] = Rate 125 g/ha, 0 no injury, 100 complete control
structure (smiles),measurement,setting,value
Cc1ccc(N(C(=O)n2oc(=O)n(C(C)C)c2=O)C(C)C)cc1 [Compound 132],"Plant response rating, Cocklebur",[1]; Rate 140 g/ha,0
same,"Plant response rating, Cocklebur",[1]; Rate 280 g/ha,0
same,"Plant response rating, Cocklebur",[1]; Rate 560 g/ha,0
same,"Plant response rating, Cocklebur",[1]; Rate 1120 g/ha,0
same,"Plant response rating, Corn",[2]; Rate 140 g/ha,0
same,"Plant response rating, Corn",[2]; Rate 280 g/ha,0
same,"Plant response rating, Corn",[2]; Rate 560 g/ha,0
same,"Plant response rating, Corn",[2]; Rate 1120 g/ha,10
same,Plant response rating I. morningglory,[3]; Rate 140 g/ha,0
same,Plant response rating I. morningglory,[3]; Rate 280 g/ha,0
same,Plant response rating I. morningglory,[3]; Rate 560 g/ha,0
same,Plant response rating I. morningglory,[3]; Rate 1120 g/ha,0
same,Plant response rating H. beggarticks,[4]; Rate 140 g/ha,0
same,Plant response rating H. beggarticks,[4]; Rate 280 g/ha,0
same,Plant response rating Field bindweed,[5]; Rate 140 g/ha,0
same,Plant response rating Field bindweed,[5]; Rate 280 g/ha,0
same,Plant response rating Field bindweed,[5]; Rate 560 g/ha,40
same,Plant response rating Field bindweed,[5]; Rate 1120 g/ha,70
same,"Plant response rating, Sourgrass",[6]; [16],100
same,"Plant response rating, Purple nutsedge",[7]; Rate 140 g/ha,0
same,"Plant response rating, Purple nutsedge",[7]; Rate 280 g/ha,0
same,"Plant response rating, Purple nutsedge",[7]; Rate 560 g/ha,0
same,"Plant response rating, Purple nutsedge",[7]; Rate 1120 g/ha,0
same,Plant response rating Cotton,[8]; Rate 140 g/ha,5
same,Plant response rating Cotton,[8]; Rate 280 g/ha,10
same,Plant response rating Cotton,[8]; Rate 560 g/ha,20
same,Plant response rating Cotton,[8]; Rate 1120 g/ha,40
same,Plant response rating Common ragweed,[9]; Rate 140 g/ha,0
same,Plant response rating Common ragweed,[9]; Rate 280 g/ha,0
same,Plant response rating Common ragweed,[9]; Rate 560 g/ha,0
same,Plant response rating Common ragweed,[9]; Rate 1120 g/ha,0
same,"Plant response rating, Redroot pigweed",[10]; Rate 140 g/ha,0
same,"Plant response rating, Redroot pigweed",[10]; Rate 280 g/ha,10
same,"Plant response rating, Redroot pigweed",[10]; Rate 1120 g/ha,30
same,Plant response rating Lambsquarters,[11]; Rate 140 g/ha,0
same,Plant response rating Lambsquarters,[11]; Rate 280 g/ha,0
same,Plant response rating Lambsquarters,[11]; Rate 560 g/ha,0
same,Plant response rating Lambsquarters,[11]; Rate 1120 g/ha,0
same,"Plant response rating, Giant foxtail",[12]; Rate 140 g/ha,0
same,"Plant response rating, Giant foxtail",[12]; Rate 280 g/ha,0
same,"Plant response rating, Giant foxtail",[12]; Rate 560 g/ha,0
same,"Plant response rating, Giant foxtail",[12]; Rate 1120 g/ha,0
same,Plant response rating Surinam grass,[13]; Rate 140 g/ha,0
same,Plant response rating Surinam grass,[13]; Rate 280 g/ha,0
same,Plant response rating Surinam grass,[13]; Rate 560 g/ha,0
same,Plant response rating Surinam grass,[13]; Rate 1120 g/ha,30
same,Plant response rating Large crabgrass,[14]; Rate 140 g/ha,0
same,Plant response rating Large crabgrass,[14]; Rate 280 g/ha,10
same,Plant response rating Large crabgrass,[14]; Rate 560 g/ha,40
same,Plant response rating Large crabgrass,[14]; Rate 1120 g/ha,80
same,Plant response rating E. blacknightsh,[15]; Rate 140 g/ha,0
same,Plant response rating E. blacknightsh,[15]; Rate 280 g/ha,0
same,Plant response rating E. blacknightsh,[15]; Rate 560 g/ha,0
same,Plant response rating E. blacknightsh,[15]; Rate 1120 g/ha,0
C=CCn1c(=O)on(C(=O)N(c2ccc(F)cc2)C(C)C)c1=O [Compound 146],"Plant response rating, Cocklebur",[1]; Rate 140 g/ha,40
same,"Plant response rating, Cocklebur",[1]; Rate 280 g/ha,40
same,"Plant response rating, Cocklebur",[1]; Rate 560 g/ha,70
same,"Plant response rating, Cocklebur",[1]; Rate 1120 g/ha,70
same,"Plant response rating, Corn",[2]; Rate 140 g/ha,0
same,"Plant response rating, Corn",[2]; Rate 280 g/ha,0
same,"Plant response rating, Corn",[2]; Rate 560 g/ha,5
same,"Plant response rating, Corn",[2]; Rate 1120 g/ha,50
same,Plant response rating I. morningglory,[3]; Rate 140 g/ha,0
same,Plant response rating I. morningglory,[3]; Rate 280 g/ha,20
same,Plant response rating I. morningglory,[3]; Rate 560 g/ha,20
same,Plant response rating I. morningglory,[3]; Rate 1120 g/ha,50
same,Plant response rating H. beggarticks,[4]; Rate 140 g/ha,10
same,Plant response rating H. beggarticks,[4]; Rate 280 g/ha,20
same,Plant response rating H. beggarticks,[4]; Rate 560 g/ha,85
same,Plant response rating H. beggarticks,[4]; Rate 1120 g/ha,85
same,Plant response rating Field bindweed,[5]; Rate 140 g/ha,0
same,Plant response rating Field bindweed,[5]; Rate 280 g/ha,0
same,Plant response rating Field bindweed,[5]; Rate 560 g/ha,0
same,Plant response rating Field bindweed,[5]; Rate 1120 g/ha,0
same,"Plant response rating, Sourgrass","[6]; Rate 16 g/ha, 0 no injury, 100 complete control",0
same,"Plant response rating, Sourgrass",[6]; [17],98
same,Sourgrass plant response rating,[6]; [16],100
same,Sourgrass plant response rating,[6]; [18],100
same,"Plant response rating, Sourgrass",[6]; Rate 250 g/ha,100
same,"Plant response rating, Sourgrass",[6]; Rate 500 g/ha,100
same,"Plant response rating, Purple nutsedge",[7]; Rate 140 g/ha,0
same,"Plant response rating, Purple nutsedge",[7]; Rate 280 g/ha,0
same,"Plant response rating, Purple nutsedge",[7]; Rate 560 g/ha,0
same,"Plant response rating, Purple nutsedge",[7]; Rate 1120 g/ha,0
same,Plant response rating Cotton,[8]; Rate 140 g/ha,40
same,Plant response rating Cotton,[8]; Rate 280 g/ha,65
same,Plant response rating Cotton,[8]; Rate 560 g/ha,65
same,Plant response rating Cotton,[8]; Rate 1120 g/ha,70
same,Plant response rating Common ragweed,[9]; Rate 140 g/ha,10
same,Plant response rating Common ragweed,[9]; Rate 560 g/ha,30
same,Plant response rating Common ragweed,[9]; Rate 1120 g/ha,30
same,"Plant response rating, Redroot pigweed",[10]; Rate 140 g/ha,0
same,"Plant response rating, Redroot pigweed",[10]; Rate 1120 g/ha,20
same,Plant response rating Lambsquarters,[11]; Rate 140 g/ha,0
same,Plant response rating Lambsquarters,[11]; Rate 280 g/ha,5
same,Plant response rating Lambsquarters,[11]; Rate 560 g/ha,10
same,Plant response rating Lambsquarters,[11]; Rate 1120 g/ha,50
same,"Plant response rating, Giant foxtail",[12]; Rate 140 g/ha,0
same,"Plant response rating, Giant foxtail",[12]; Rate 280 g/ha,40
same,"Plant response rating, Giant foxtail",[12]; Rate 560 g/ha,80
same,"Plant response rating, Giant foxtail",[12]; Rate 1120 g/ha,85
same,Plant response rating Surinam grass,[13]; Rate 140 g/ha,0
same,Plant response rating Surinam grass,[13]; Rate 280 g/ha,5
same,Plant response rating Surinam grass,[13]; Rate 560 g/ha,50
same,Plant response rating Surinam grass,[13]; Rate 1120 g/ha,95
same,Plant response rating Large crabgrass,[14]; Rate 140 g/ha,0
same,Plant response rating Large crabgrass,[14]; Rate 280 g/ha,60
same,Plant response rating Large crabgrass,[14]; Rate 560 g/ha,60
same,Plant response rating Large crabgrass,[14]; Rate 1120 g/ha,80
same,Plant response rating E. blacknightsh,[15]; Rate 140 g/ha,0
same,Plant response rating E. blacknightsh,[15]; Rate 280 g/ha,30
same,Plant response rating E. blacknightsh,[15]; Rate 560 g/ha,85
same,Plant response rating E. blacknightsh,[15]; Rate 1120 g/ha,85
CCc1ccccc1-n1c(=O)on(C(=O)N(c2ccc(F)cc2)C(C)C)c1=O [Compound 34],"Plant response rating, Sourgrass",[6]; [17],98
same,Sourgrass plant response rating,[6]; [16],100
same,Sourgrass plant response rating,[6]; [18],100
same,"Plant response rating, Sourgrass",[6]; Rate 250 g/ha,100
